Measurements from ChEMBL document CHEMBL1909046, “DrugMatrix in vitro pharmacology data”.

Tests used:
[1] = target: T1, Neuropeptide Y receptor type 2 (Homo sapiens, UniProt P49146); assay type: cell membranes, Membrane; conditions: kan-ts; also: in other assays of this panel Not Active means under 50% inhibition at 10 µM
T1 sequence (P49146 whole entry): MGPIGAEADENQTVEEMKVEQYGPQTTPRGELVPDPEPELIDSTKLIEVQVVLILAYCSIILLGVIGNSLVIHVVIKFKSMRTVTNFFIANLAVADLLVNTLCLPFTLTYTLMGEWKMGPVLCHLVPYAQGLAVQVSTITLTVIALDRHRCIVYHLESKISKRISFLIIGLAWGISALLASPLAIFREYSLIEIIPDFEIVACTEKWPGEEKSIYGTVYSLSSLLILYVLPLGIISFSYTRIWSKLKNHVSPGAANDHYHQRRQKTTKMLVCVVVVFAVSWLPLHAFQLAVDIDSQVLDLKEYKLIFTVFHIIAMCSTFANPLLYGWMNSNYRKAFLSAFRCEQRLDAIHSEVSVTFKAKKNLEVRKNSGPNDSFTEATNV

[2] = target: Mitogen-activated protein kinase 3 (Homo sapiens, UniProt P27361); experiment: DRUGMATRIX: Protein Serine/Threonine Kinase, ERK1 enzyme inhibition (substrate: Myelin Basic Protein); design: species or system Escherichia coli; conditions: Not Active = under 50% inhibition at 10 µM
Mitogen-activated protein kinase 3, sequence (P27361 whole entry): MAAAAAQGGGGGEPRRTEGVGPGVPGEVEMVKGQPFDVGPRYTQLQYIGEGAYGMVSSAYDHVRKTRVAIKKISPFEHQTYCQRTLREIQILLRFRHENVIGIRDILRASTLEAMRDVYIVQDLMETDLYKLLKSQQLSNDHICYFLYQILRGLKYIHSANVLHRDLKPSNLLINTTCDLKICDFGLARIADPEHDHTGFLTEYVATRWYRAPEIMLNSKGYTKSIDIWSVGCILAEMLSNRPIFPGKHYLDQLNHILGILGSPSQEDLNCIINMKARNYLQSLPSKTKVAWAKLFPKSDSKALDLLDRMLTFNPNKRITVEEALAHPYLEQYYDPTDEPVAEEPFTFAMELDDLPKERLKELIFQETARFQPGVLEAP

Melanocortin receptor 3 = Melanocortin receptor 3 (Homo sapiens, UniProt P41968); assay type: cell membranes, Membrane; conditions: hek293; also: in other assays of this panel Not Active means under 50% inhibition at 10 µM
Melanocortin receptor 3, sequence (P41968 whole entry): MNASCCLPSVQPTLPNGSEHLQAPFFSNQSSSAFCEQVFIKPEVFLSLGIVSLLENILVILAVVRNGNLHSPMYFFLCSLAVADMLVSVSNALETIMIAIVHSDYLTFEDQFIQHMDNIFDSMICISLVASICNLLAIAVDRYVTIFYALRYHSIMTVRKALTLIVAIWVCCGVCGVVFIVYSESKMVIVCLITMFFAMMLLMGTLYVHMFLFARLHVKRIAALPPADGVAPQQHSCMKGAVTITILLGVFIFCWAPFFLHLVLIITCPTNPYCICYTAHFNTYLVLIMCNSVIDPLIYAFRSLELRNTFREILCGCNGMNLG

Cathepsin G = target: T2, Cathepsin G (Homo sapiens, UniProt P08311); assay type: tissue-based; conditions: neutrophil;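 also: inhibition of Cathepsin G enzyme activity, tested on an AMC-conjugated peptide substrate; in other assays of this panel Not Active means under 50% inhibition at 10 µM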
T2 sequence (P08311 whole entry): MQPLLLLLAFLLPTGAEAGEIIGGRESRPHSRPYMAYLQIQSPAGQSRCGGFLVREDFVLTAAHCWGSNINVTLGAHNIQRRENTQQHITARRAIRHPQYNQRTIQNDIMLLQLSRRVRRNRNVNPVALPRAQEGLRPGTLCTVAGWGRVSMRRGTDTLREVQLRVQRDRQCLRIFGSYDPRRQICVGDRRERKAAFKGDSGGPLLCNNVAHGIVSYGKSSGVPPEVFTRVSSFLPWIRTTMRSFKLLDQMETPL

Adenosine receptor A2a = Adenosine receptor A2a (Homo sapiens, UniProt P29274); experiment: DRUGMATRIX: Adenosine A2A radioligand binding (ligand: […]); assay type: cell membranes, HEK293, Membrane; conditions: Not Active = under 50% inhibition at 10 µM
Adenosine receptor A2a, sequence (P29274 whole entry): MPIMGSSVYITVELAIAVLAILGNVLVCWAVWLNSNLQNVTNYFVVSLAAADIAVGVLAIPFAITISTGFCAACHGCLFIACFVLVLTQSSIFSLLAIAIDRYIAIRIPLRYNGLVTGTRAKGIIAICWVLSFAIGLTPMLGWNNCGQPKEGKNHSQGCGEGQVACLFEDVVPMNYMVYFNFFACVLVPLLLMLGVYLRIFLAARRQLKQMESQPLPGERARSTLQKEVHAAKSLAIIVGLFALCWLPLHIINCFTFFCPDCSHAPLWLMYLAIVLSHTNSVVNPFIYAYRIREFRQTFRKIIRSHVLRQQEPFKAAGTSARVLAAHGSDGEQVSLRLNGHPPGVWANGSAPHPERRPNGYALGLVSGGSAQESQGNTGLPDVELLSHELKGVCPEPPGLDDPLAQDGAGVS

[3] = target: cGMP-specific 3',5'-cyclic phosphodiesterase (Homo sapiens, UniProt O76074); experiment: DRUGMATRIX: Phosphodiesterase PDE5 enzyme inhibition (substrate: [3H]cGMP + cGMP); assay type: tissue-based; conditions: platelet; Not Active = under 50% inhibition at 10 µM
[4] = target: T3, Alpha-2C adrenergic receptor (Homo sapiens, UniProt P18825); experiment: DRUGMATRIX: Adrenergic Alpha-2C radioligand binding (ligand: [3H] MK-912); assay type: cell membranes, Sf9, Membrane
T3 sequence (P18825 whole entry): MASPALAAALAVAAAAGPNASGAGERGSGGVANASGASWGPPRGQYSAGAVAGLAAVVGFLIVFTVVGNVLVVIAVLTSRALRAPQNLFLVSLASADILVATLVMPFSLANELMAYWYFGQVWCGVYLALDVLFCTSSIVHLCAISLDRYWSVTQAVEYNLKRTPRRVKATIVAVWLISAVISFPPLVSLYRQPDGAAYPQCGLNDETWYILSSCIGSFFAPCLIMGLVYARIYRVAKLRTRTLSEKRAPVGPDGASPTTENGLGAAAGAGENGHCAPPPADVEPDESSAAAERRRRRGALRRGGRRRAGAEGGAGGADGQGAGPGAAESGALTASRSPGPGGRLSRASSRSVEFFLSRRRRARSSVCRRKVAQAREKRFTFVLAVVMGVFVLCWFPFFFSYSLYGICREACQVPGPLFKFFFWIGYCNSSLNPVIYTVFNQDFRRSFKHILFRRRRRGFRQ

Structure (SMILES)	IC50 [1]	IC50 [2]	IC50 (Melanocortin receptor 3)	IC50 (Cathepsin G)	IC50 (Adenosine receptor A2a; hek293)	IC50 [3]	IC50 ([4]; sf9)	IC50 ([4]; read-out: IC50) [µM]	Ki ([4]; read-out: Ki) [µM]	IC50 (Adenosine receptor A2a; read-out: IC50) [µM]	Ki (Adenosine receptor A2a; read-out: Ki) [µM]
CO[C@@]1(NC(=O)CSCC#N)C(=O)N2C(C(=O)O)=C(CSc3nnnn3C)CS[C@@H]21 [CEFMETAZOLE]	Not Active	Not Active	Not Active	Not Active	Not Active	Not Active	Not Active	–	–	–	–
CN(C(=O)CCCOc1ccc2[nH]c(=O)ccc2c1)C1CCCCC1 [CILOSTAMIDE]	Not Active	Not Active	Not Active	Not Active	Not Active	Not Active	Not Active	–	–	–	–
CC(C)(Oc1ccc(C2CC2(Cl)Cl)cc1)C(=O)O (stereo unspecified) [CIPROFIBRATE]	Not Active	Not Active	Not Active	Not Active	Not Active	Not Active	Not Active	–	–	–	–
Nc1nc(Cl)nc2c1ncn2[C@H]1C[C@H](O)[C@@H](CO)O1 [CLADRIBINE]	Not Active	Not Active	Not Active	Not Active	Not Active	Not Active	Not Active	–	–	–	–
CC[C@H]1OC(=O)[C@H](C)[C@@H](O[C@H]2C[C@@](C)(OC)[C@@H](O)[C@H](C)O2)[C@H](C)[C@@H](O[C@@H]2O[C@H](C)C[C@H](N(C)C)[C@H]2O)[C@](C)(OC)C[C@@H](C)C(=O)[C@H](C)[C@@H](O)[C@]1(C)O [CLARITHROMYCIN]	Not Active	Not Active	Not Active	Not Active	Not Active	Not Active	Not Active	–	–	–	–
CCC[C@@H]1C[C@@H](C(=O)N[C@@H]([C@H]2O[C@H](SC)[C@H](O)[C@@H](O)[C@H]2O)[C@H](C)Cl)N(C)C1 [CLINDAMYCIN]	Not Active	Not Active	Not Active	Not Active	Not Active	Not Active	Not Active	–	–	–	–
O=C(O)c1cc(=O)c2c(OCC(O)COc3cccc4oc(C(=O)O)cc(=O)c34)cccc2o1 [CROMOLYN]	Not Active	Not Active	Not Active	Not Active	Not Active	Not Active	Not Active	–	–	–	–
O=P1(N(CCCl)CCCl)NCCCO1 (stereo unspecified) [CYCLOPHOSPHAMIDE ANHYDROUS]	Not Active	Not Active	Not Active	Not Active	Not Active	Not Active	Not Active	–	–	–	–
CC(=O)O[C@]1(C(C)=O)CC[C@H]2[C@@H]3C=C(Cl)C4=CC(=O)[C@@H]5C[C@@H]5[C@]4(C)[C@H]3CC[C@@]21C [CYPROTERONE ACETATE]	Not Active	Not Active	Not Active	Not Active	Not Active	Not Active	Not Active	–	–	–	–
Nc1nc(N)nc(NC2CC2)n1 [CYROMAZINE]	Not Active	Not Active	Not Active	Not Active	Not Active	Not Active	Not Active	–	–	–	–
C#C[C@]1(O)CC[C@H]2[C@@H]3CCC4=Cc5oncc5C[C@]4(C)[C@H]3CC[C@@]21C [DANAZOL]	Not Active	Not Active	Not Active	Not Active	Not Active	Not Active	–	23.8	3.45	–	–
CCN[C@@H](C)Cc1cccc(C(F)(F)F)c1 [DEXFENFLURAMINE]	Not Active	Not Active	Not Active	Not Active	Not Active	Not Active	Not Active	–	–	–	–
C[C@H](C(=O)O)c1cccc(C(=O)c2ccccc2)c1 [DEXKETOPROFEN]	Not Active	Not Active	Not Active	Not Active	Not Active	Not Active	Not Active	–	–	–	–
CN1C(=O)CN=C(c2ccccc2)c2cc(Cl)ccc21 [DIAZEPAM]	Not Active	Not Active	Not Active	Not Active	Not Active	Not Active	Not Active	–	–	–	–
CC(CCc1ccc(O)cc1)NCCc1ccc(O)c(O)c1 (stereo unspecified) [DOBUTAMINE]	Not Active	Not Active	Not Active	Not Active	Not Active	Not Active	Not Active	–	–	–	–
CCn1cc(C(=O)O)c(=O)c2cc(F)c(N3CCNCC3)nc21 [ENOXACIN]	Not Active	Not Active	Not Active	Not Active	Not Active	Not Active	Not Active	–	–	–	–
CCC(=O)O[C@H]1[C@H](O[C@@H]2[C@@H](C)[C@H](O[C@H]3C[C@@](C)(OC)[C@@H](O)[C@H](C)O3)[C@@H](C)C(=O)O[C@H](CC)[C@@](C)(O)[C@H](O)[C@@H](C)C(=O)[C@H](C)C[C@@]2(C)O)O[C@H](C)C[C@@H]1N(C)C [ERYTHROMYCIN PROPIONATE]	Not Active	Not Active	Not Active	Not Active	Not Active	Not Active	Not Active	–	–	–	–
C=C(CC)C(=O)c1ccc(OCC(=O)O)c(Cl)c1Cl [ETHACRYNIC ACID]	Not Active	Not Active	Not Active	Not Active	Not Active	Not Active	Not Active	–	–	–	–
C#C[C@]1(O)CC[C@H]2[C@@H]3CCc4cc(O)ccc4[C@H]3CC[C@@]21C [ETHINYL ESTRADIOL]	Not Active	Not Active	Not Active	Not Active	–	Not Active	Not Active	–	–	20.9	11.8
OCCO [ETHYLENE GLYCOL]	Not Active	Not Active	Not Active	Not Active	Not Active	Not Active	Not Active	–	–	–	–
CC(=O)OCC(CCn1cnc2cnc(N)nc21)COC(C)=O [FAMCICLOVIR]	Not Active	Not Active	Not Active	Not Active	Not Active	Not Active	Not Active	–	–	–	–
O=C(O)Cc1ccc(-c2ccccc2)cc1 [FELBINAC]	Not Active	Not Active	Not Active	Not Active	Not Active	Not Active	Not Active	–	–	–	–
CCOC(=O)C1=C(C)NC(C)=C(C(=O)OC)C1c1cccc(Cl)c1Cl (stereo unspecified) [FELODIPINE]	Not Active	Not Active	Not Active	Not Active	Not Active	Not Active	Not Active	–	–	–	–
CC(C(=O)O)c1ccc(-c2ccccc2)c(F)c1 (stereo unspecified) [FLURBIPROFEN]	Not Active	Not Active	Not Active	Not Active	Not Active	Not Active	Not Active	–	–	–	–
Cc1cn[nH]c1 [FOMEPIZOLE]	Not Active	Not Active	Not Active	Not Active	Not Active	Not Active	Not Active	–	–	–	–
NC[C@@H]1O[C@H](O[C@H]2[C@@H](O)[C@H](O[C@@H]3[C@@H](O)[C@H](N)C[C@H](N)[C@H]3O[C@H]3O[C@H](CN)[C@@H](O)[C@H](O)[C@H]3N)O[C@@H]2CO)[C@H](N)[C@@H](O)[C@@H]1O [FRAMYCETIN]	Not Active	Not Active	Not Active	Not Active	Not Active	Not Active	Not Active	–	–	–	–
C[C@H]([C@](O)(Cn1cncn1)c1ccc(F)cc1F)S(C)(=O)=O [GENACONAZOLE]	Not Active	Not Active	Not Active	Not Active	Not Active	Not Active	Not Active	–	–	–	–
